Measured values: PubChem BioAssay AID2060364

Tested on: JHH-NF1-GBM1 glioma viability, PrestoBlue fluorescence, 120 h
Assay: growth inhibition of ATRX-deficient high-grade glioma cells – cell-based, JHH-NF1-GBM1, PrestoBlue, dose response (AID 2060364)

Molecule `O=[N+]([O-])c1c(NCCO)cc(Sc2nc3ccccc3s2)c2nonc12` has an IC50 of 4.84 µM.
